Measured values as given in publication PMC5913400, “Yoda1 analogue (Dooku1) which antagonizes Yoda1‐evoked activation of Piezo1 and aortic relaxation” (British Journal of Pharmacology, 2018).
Read-outs that look alike come from different tables or passages of the source.

Experiments:
Format in all cases: cell-based
[1] = target: T1, Piezo1 (Homo sapiens, UniProt Q92508); assay: partial agonist; […] pretreatment reduces […] Yoda1-evoked Ca2+ entry in Piezo1 T-REx HEK […] cells; conditions: TREx-HEK; read-out: % inhibition of Yoda1 response at 10 μM
T1 sequence (Q92508 whole entry): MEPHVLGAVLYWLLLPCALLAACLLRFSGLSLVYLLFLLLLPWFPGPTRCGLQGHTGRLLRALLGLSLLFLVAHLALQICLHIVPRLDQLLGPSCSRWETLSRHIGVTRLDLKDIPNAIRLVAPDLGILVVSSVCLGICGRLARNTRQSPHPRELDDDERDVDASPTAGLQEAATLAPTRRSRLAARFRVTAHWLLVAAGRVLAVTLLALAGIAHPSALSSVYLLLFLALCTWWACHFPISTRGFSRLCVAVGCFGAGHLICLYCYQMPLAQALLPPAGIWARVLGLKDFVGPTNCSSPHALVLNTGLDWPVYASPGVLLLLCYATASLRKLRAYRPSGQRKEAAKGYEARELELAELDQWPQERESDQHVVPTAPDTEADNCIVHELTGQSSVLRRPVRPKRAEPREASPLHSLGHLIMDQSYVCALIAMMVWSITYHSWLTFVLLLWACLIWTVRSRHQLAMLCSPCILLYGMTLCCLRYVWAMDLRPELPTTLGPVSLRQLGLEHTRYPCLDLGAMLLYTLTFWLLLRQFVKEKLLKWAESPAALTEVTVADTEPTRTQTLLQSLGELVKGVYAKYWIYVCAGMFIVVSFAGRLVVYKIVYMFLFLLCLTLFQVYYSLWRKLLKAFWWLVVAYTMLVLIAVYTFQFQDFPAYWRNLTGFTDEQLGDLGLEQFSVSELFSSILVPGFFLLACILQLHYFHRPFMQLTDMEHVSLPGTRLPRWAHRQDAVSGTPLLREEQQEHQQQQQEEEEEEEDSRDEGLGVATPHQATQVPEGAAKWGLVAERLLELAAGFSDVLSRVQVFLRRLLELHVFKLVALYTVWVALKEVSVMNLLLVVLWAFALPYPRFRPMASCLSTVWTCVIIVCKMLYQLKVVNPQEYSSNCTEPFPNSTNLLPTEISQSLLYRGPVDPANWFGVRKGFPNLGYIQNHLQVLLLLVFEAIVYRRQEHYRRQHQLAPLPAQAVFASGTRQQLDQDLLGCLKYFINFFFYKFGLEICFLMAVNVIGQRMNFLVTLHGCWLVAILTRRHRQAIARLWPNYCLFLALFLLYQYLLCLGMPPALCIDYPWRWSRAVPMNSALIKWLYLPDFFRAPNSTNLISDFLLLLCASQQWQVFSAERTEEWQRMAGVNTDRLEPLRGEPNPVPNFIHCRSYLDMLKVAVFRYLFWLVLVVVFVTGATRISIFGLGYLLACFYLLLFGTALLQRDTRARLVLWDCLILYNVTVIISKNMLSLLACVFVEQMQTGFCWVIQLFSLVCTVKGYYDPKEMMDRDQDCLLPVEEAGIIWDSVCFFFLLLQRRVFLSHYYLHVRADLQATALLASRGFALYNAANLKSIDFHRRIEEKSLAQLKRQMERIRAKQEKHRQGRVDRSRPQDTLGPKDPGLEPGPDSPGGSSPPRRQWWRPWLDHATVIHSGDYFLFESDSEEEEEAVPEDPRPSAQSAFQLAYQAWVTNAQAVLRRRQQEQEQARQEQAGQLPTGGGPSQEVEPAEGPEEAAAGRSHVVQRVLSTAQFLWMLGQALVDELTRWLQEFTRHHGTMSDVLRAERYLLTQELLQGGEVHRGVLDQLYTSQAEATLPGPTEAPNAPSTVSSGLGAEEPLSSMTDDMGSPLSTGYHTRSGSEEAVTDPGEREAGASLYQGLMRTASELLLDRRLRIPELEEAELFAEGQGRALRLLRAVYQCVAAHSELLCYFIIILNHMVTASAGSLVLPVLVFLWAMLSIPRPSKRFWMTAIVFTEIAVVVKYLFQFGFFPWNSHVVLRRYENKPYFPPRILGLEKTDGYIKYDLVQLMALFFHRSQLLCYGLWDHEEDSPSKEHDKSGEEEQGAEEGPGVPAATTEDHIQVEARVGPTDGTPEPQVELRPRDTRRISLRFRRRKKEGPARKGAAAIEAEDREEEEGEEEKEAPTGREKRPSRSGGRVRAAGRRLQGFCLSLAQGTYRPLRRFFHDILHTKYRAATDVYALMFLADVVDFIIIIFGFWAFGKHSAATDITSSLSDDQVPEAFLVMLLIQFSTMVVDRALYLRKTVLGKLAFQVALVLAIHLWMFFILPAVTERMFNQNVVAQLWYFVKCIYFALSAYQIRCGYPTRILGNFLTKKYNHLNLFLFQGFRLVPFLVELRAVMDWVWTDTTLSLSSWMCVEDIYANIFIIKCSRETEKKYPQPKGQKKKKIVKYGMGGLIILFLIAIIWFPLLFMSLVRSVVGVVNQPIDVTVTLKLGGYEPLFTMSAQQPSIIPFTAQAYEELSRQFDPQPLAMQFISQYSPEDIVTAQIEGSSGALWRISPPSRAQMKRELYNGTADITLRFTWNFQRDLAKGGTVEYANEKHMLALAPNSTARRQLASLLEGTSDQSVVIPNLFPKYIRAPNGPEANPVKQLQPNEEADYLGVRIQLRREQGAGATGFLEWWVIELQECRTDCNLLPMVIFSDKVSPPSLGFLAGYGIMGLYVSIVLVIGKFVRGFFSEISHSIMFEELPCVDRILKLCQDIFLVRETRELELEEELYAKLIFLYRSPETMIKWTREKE

[2] = target: T1, Piezo1; assay: inhibition of […] Yoda1-evoked Ca2+ entry in Piezo1 T-REx HEK […] cells; reversible; also Tl+ flux and HUVECs (IC50 […])
[3] = target: T1, Piezo1; assay: Ca2+ entry at […] in Piezo1 T-REx HEK […] cells ([…] of Yoda1 response); also reduces Yoda1 response; conditions: TREx-HEK; read-out: % of 10 μM Yoda1 response
[4] = target: T1, Piezo1; assay: intracellular Ca2+ (fura-2) in Piezo1 T-REx HEK […] cells; no response in cells without Piezo1; EC50 […] in HUVECs
[5] = target: T1, Piezo1; assay: Ca2+ entry at […] in Piezo1 T-REx HEK […] cells ([…] of Yoda1 response); also reduces Yoda1 response; conditions: TREx-HEK; read-out: % of 10 μM Yoda1 response; remark: listed apart in the source

Question: Clc1cccc(Cl)c1CSc1nnc(-c2ccccn2)o1 [2j] was tested. Which inhibition at 10 µM [1] did it give?
Answer: ~75%

Question: For Clc1cccc(Cl)c1CSc1nnc(-c2ccc[nH]2)o1 [2k, Dooku1], which IC50 [2] is on record?
Answer: 1300 nM

Question: Which Emax [3] does the source give for Clc1cccc(Cl)c1CSc1nnc(-c2cccnc2)s1 [7a] here?
Answer: 50%

Question: Which EC50 [4] does the source give for Clc1cccc(Cl)c1CSc1nnc(-c2cnccn2)s1 [Yoda1] here?
Answer: 2510 nM

Question: Which Emax [5] does the source give for Clc1cccc(Cl)c1CSc1nnc(-c2cnccn2)o1 [compound 11] here?
Answer: ~70%
